For this data set the following is noted: Liquid, Ebulliometric method (Recirculating still).

Experimental findings from the NIST ThermoML archive (doi:10.1021/acs.jced.7b00005) are described below.

Numbers after ± are expanded uncertainties.

As usually defined, the vapor or sublimation pressure is the equilibrium pressure above the liquid or solid. Consider `CC#N` [acetonitrile], for which the “vapor or sublimation pressure” value by setting is: (295.25 K) 10 ± 0.3 kPa; (295.4 K) 10 ± 0.3 kPa.
